# Experimental data as given in US5763400A, “Ecdysis-triggering hormone compositions” (priority 1996, dated 1998).
# Entries after “also recorded” stand apart in the source; their conditions may differ. Ends that are not written are not given here.
# Columns and labels:
# [1] = tested on: isolated central nervous system of pharate 5th instar larvae; assay: Motor burst patterns of isolated central nervous system of pharate 5th instar larvae, bath application; assay type: cell-based, Manduca sexta
# Experimental: (§1) The entire central nervous system or a chain of abdominal ganglia dissected from pharate fifth instar larvae or pharate pupae were placed in a 300 ml Sylgard bath and bathed in modified Weever's saline. Motor output was recorded extracellularly from dorsal roots of abdominal ganglia A5, A6, and A7 using polyethylene suction electrodes. Potentials were amplified with Grass P-15 AC amplifiers, captured on video tape, and played back on a Gould Brush pen recorder. To record natural pre-ecdysis and ecdtysis, the nervous system was removed after initiation of the behavior.
# For studies involving bath application of synthetic MasETH, pharate 5th instar nerve cords were dissected at -8 hr prior to ecdysis, using liquid-Lilled head and brown mandibles as morphological markers. Pharate pupae were dissected at 8 hours prior to natural ecdysis using brown bars as the morphological marker.
# (§2) The tracheal system was removed in all studies. The pattern of pre-eccdysisin isolated pharate 5th instar CNS under natural conditions was quite similar to that elicited by application of 100 nM Mas-ETH. To observe natural pre-ecdysis and ecdysis motor patterns, animals were observed until initiation of pre-ecdysis, at which time nerve cords were quickly removed and prepared for suction electrode recordings. In both instances, pre-ecdysis bursts occurred synchronously in the dorsal nerves of A5-A7 every 10 to 12 seconds with a duration of 5 to 10 sec. Similarly, the burst pattern driving ecdysis in pharate larvae under natural conditions was similar to that resulting from exposure to 1 mM Mas-ETH. Ecdysis bursts occurred every 20 to 30 seconds and were about 20 sec in duration, with an intersegmental delay of about 5 sec. Burst durations and intervals between bursts became longer as the behavior progressed, which corresponded to observations of natural behavior patterns. Optimal Mas-ETH concentrations for triggering pre-ecdysis were lower than those necessary for ecdysis.
# [2] = tested on: pharate adults; assay: Injection into pharate adults: induction of ecdysis (eclosion); assay type: in vivo, Manduca sexta
# Experimental: Pharate pupae responded to injections (400 pmol to 1 nmol) (FIG. 2B; n=12) up to 48 hours prior to natural ecdysis. […] Ecdysis followed after a period of 50 to 90 min. Pharate adults responded to Mas-ETH injections (1 to 2 nmol) up to 24 hours prior to natural ecdysis (n=10). Rotatory movements of the abdomen began within 3 to 10 min of injection and were followed by a period of relative quiescence.
# [3] = tested on: pharate fourth instar Manduca sexta larvae; assay: Injection into pharate fourth instar larvae (liquid-filled head capsule stage), carboxy-terminus study; details: in vivo
# Experimental: The amidated and acid form of the 26 mer of SEQ ID NO:3 was prepared using a solid state synthesizer. This procedure is the same as that described at example 7. The amidated and acid forms of ETH used in the present study were synthesized by Research Genetics Corporation using these standard protocols (5 mg. each of the amidated-ETH and the acid-ETH).
# [4] = tested on: pharate 5th instar larvae; assay: Injection into pharate 5th instar larvae: induction of pre-ecdysis and ecdysis behavior; assay type: in vivo, Manduca sexta; details: for biological activity of additional EG peptides: initial RPLC data on EG
# Experimental: A peptide with ecdysis-triggering activity was also purified from an extract of 50 pharate pupal EG with reversed-phase liquid chromatography (RPLC) (FIG. 1A) . For HPLC fractionation, freshly-dissected EG were homogenized in acidic methanol (MeOH: H2 O:acetic acid, 90:9:1) and the supernatant was evaporated to dryness. Crude extracts of EG were fractionated with a Microsorb C4 column (wide pore 300 A, 4.6 mm/25 cm), with a linearly increasing gradient of acetonitrile (3 to 53% in 90 min) in constant 0.1% TFA/water using a flow rate of 1 ml/min. Fractions were collected based on UV absorbance (220 nm) and vacuum centrifuged to dryness. Individual fractions were re-suspended in physiological saline and injected into pharate fifth instar Manduca sexta larvae. Induction of preecdysis behavior, visible as synchronous dorso-ventral contractions in body segments, were scored as positive responses.
# (§3) Natural ecdysis in pharate 5th instar larvae is preceded by a well-defined pre-ecdysis behavior, characterized by dorso-ventral contractions that occur synchronously in abdominal and thoracic segments (Copenhaver and Truman, 1982; Truman and Weeks, 1983, 1985). Contractions, visible as a dimpling of the dorso-lateral body wall, begin in the most posterior segment, and gradually spread anteriorly. Pre-ecdysis behavior typically lasts 60 to 80 min, and is followed by ecdysis behavior, which lasts about 10 min. Ecdysis behavior is characterized by a distinctly different motor pattern consisting of peristaltic waves of contractions, which originate in the most posterior segment and move anteriorly (Weeks and Truman, 1984). Using a pressure transducer to record changes in internal pressure, in vivo measurements of pre-ecdysis and ecdysis contraction patterns were obtained in pharate 5th instar larvae and pharate pupae. Internal hydrostatic pressure was measured in pharate 5th instar larvae and pharate pupae of Manduca sexta with a Gould-Statham P23-ID pressure transducer. The transducer was connected to a saline-filled tube which in turn was attached to the posterior dorsal horn of pharate 5th instar larvae and pharate pupae with low melting point dental wax.
# During natural pre-ecdysis in the larva, dorso-ventral contractions typically occur every 10 to 12 seconds with a duration of 5 to 7 seconds (FIG. 2A). When pharate larvae were injected with Mas-ETH (20 pmol to 1 nmol), pre-ecdysis began within 2 to 10 min, and the pattern was indistinguishable from that observed under natural conditions (n=13). The pre-ecdysis induced by Mas-ETH injection lasted 35 to 65 min, and was followed by ecdysis (FIG. 2A).
# At about 36 hours preceding natural ecdysis in pharate 5th instar larvae, the first signs of apolysis can be observed as an accumulation of molting fluid in the prothorax. About two hours later, head capsule slip occurs (Curtis et al., 1984). Premature ecdysis behavior induced by Mas-ETH injection (34-10 hours prior to natural ecdysis) lasted from 10 to 45 min. […] Mas-ETH triggered successful ecdysis only after the old cuticle is sufficiently digested, some 6 to 8 hr before normal ecdysis. Sensitivity to ETH, therefore, is shown to exist during the pharate stage.
# The ETH-PRP1 peptide was dissolved into physiological saline and injected into pharate fifth instar Manduca sexta larvae. A dose range of 50 pmol to 5 nmol was tested.
# [5] = tested on: pharate pupae; assay: Injection into pharate pupae: induction of pre-ecdysis and ecdysis; assay type: in vivo, Manduca sexta; details: 400 pmol to 1 nmol
# Experimental: as §3
# Pharate pupae responded to injections (400 pmol to 1 nmol) (FIG. 2B; n=12) up to 48 hours prior to natural ecdysis. […]
# [6] = tested on: isolated nerve cords lacking the tracheal system; assay: Pre-ecdysis and ecdysis motor patterns in isolated nerve cords lacking the tracheal system; assay type: cell-based, Manduca sexta; details: absence of the tracheal system
# Experimental: as §1
# as §2, with “Burst durations and intervals between bursts became longer as the behavior progressed, which corresponded to observations of natural behavior patterns. Optimal Mas-ETH concentrations for triggering pre-ecdysis were lower than those necessary for ecdysis.” left out
# [7] = tested on: pharate 5th instar larvae; assay: Injection into pharate 5th instar larvae: induction of pre-ecdysis and ecdysis behavior; assay type: in vivo, Manduca sexta; details: injected into insect larvae
# [8] = Physiological actions of ETH-PRP2 (no method described)
# [9] = tested on: larval insects; assay: Injection of synthetic Bom-ETH forms into larval insects; assay type: in vivo, Bombyx mori; details: free acid at doses much higher than the amidated form
# Experimental: Synthetic Bom-ETH was prepared according to standard solid phase peptide synthesis methods by Research Genetics, Inc. (Birmingham, AL) to provide a peptide having the amino acid sequence of the 23 mer. Both the amidated and free --COOH terminal forms were prepared.
compound,measurement,setting,value
CCOc1ccc2nc(S(N)(=O)=O)sc2c1 [Mas-ETH],interval of pre-ecdysis bursts (every),"[1]; 100 nM, dorsal nerves of A5-A7",10 to 15 s
same,pre-ecdysis burst duration,"[1]; 100 nM, dorsal nerves of A5-A7",5 to 7 s
same,ecdysis burst duration,[1]; 1 mM Mas-ETH,about 20 sec
same,intersegmental delay of ecdysis bursts,[1]; 1 mM Mas-ETH,about 5 sec
same,time prior to natural ecdysis at which pharate adults respond to injection,"[2]; 1 to 2 nmol, n=10",up to 24 hours
same,condition of emerged adults,[2]; emerged before resorption of molting fluid,could not inflate their wings
same,dose causing preecdysis followed by ecdysis,[3],≤ 1 pmol
same,behavior exhibited after injection,"[4]; injected at head capsule slip, 34 hours prior to normal ecdysis",both pre-ecdysis and ecdysis motor patterns
same,outcome of premature ecdysis behavior,[4]; injection 34-10 hours prior to natural ecdysis,ecdysis could not be completed
same,time prior to normal ecdysis at which larvae respond to injection,"[4]; pre-ecdysis behavior, n=7",up to 36 hours
same,pre-ecdysis by blood pressure measurements,[5]; earlier stages of development,clear rhythm within minutes
same,time prior to natural ecdysis at which pharate pupae respond to injection,[5]; n=12,up to 48 hours
same,pre-ecdysis and ecdysis motor patterns of isolated CNS,[6],elicited motor burst patterns; also recorded: can generate pre-ecdysis and ecdysis motor patterns
same,pre-ecdysis and ecdysis motor patterns of isolated CNS,[6]; listed as ETH,responds to ETH; also recorded: responded; also recorded: not required
"ETH-PRP1: 47-mer peptide, Asn 66 to Met 112 of the ETH precursor, SEQ ID NO:14, chemically synthesized (NYDSENRFDIPKLYPWRAENTELYEDDAQPTNGEEINGFYGKQRENM)",ecdysis behavior,[4]; dose range 50 pmol to 5 nmol,did not elicit ecdysis behavior
same,latency from injection to preecdysis behavior,[4]; dose range 50 pmol to 5 nmol,15 to 20 min
same,pre-ecdysis stimulating activity,[4]; in vivo,pre-ecdysis stimulating activity
same,biological activity of additional EG peptides,[4],ETH-like biological activity
same,cardioactivity,[7],causes cardioacceleration
"ETH-PRP2: 15-mer peptide deduced from the ETH precursor, Gln 20 to Val 34, SEQ ID NO:13 (QVESSFIKPNNVPRV)",cardioacceleration,[8],acts as a cardioaccelerator
same,effect on physiological actions of Mas-ETH,[8],increasing its ecdysis triggering activity
same,biological activity of additional EG peptides,[4],ETH-like biological activity
SNEAFDEDVMGYVIKSNKNIPRM (not fully specified (C-terminus)) [Bom-ETH amidated form],biological activity upon injection,[9],biologically active
